This note sets out measurements from PMC7136958, “Targeting the pregnane X receptor using microbial metabolite mimicry” (EMBO Molecular Medicine, 2020).

The subject of one series is RXR. In words: [11,12-3H(N)] 9-cis retinoic acid binding competition assay (RXR ligand binding), rat liver nuclear extracts. The following applies: 39.94 nM compound, 0.66 nM radioligand. As to the method: 8), 50 mM NaCl, 0.1 mM EDTA, 1 mM DTT, 1 mM PMSF, and 1% DMSO. The substrate is 3H-CoA (acetyl coenzyme A) and the incubation time is for 1 h at 30° C. The radioactivity in mixture is detected on washed filter paper using a scintillation counter. The Histone Deacetylase (HDAC) fluorescent activity assay (HDAC1-3) is based on the using 2X purified human enzyme mixed with the reaction buffer (50 mM Tris-HCl pH 8, 137 mM NaCl, 2.7 mM KCl, and 1 mM MgCl2, 1 mg/mL fresh BSA and 1% fresh DMSO) and then compounds (in 100% DMSO) are titrated in using Acoustic Technology.
The 2X HDAC substrate is a fluorogenic acetylated peptide from p53 (residues 379 - 38 2 RHKK(Ac)AMC) which is mixed in with the enzyme-compound complex and incubated for 1-2 h at 30 °C. In the development step, a proprietary developer with trichostatin A (or TMP269) is added to stop the reaction and to generate fluorescent color which is read using an EnVision Multilabel Plate Reader (Perkin Elmer) (Ex 360 nm/ Em 460 nm). For all enzyme activity assays, the percentage of enzyme activity (relative to DMSO controls) and IC50 values were calculated using GraphPad Prism 4 program (sigmoidal dose response equations).
Isolation of cell nuclei. Rat liver nuclear fraction was prepared from rat livers by the procedure established and optimized previously 19. […]

In a further series the target is ERK3 (Homo sapiens, UniProt Q16659). The series is described as follows: KINOMEscan select kinase screen. Format: binding. The following applies: two experiments. As to the method:
(§1) Kinase Assays. The kinase inhibition assays were conducted by DiscoverX on a platform assay by Ambit BioSciences as described previously 16,17. FKK6 was screened at a single concentration of 10 μM in duplicate. The scanMAXSM assay panel measures 468 kinases
(§2) (https://www.discoverx.com/services/drug-discovery-development-services/kinase-profiling/kinomescan/scanmax). The assays measure a compound’s ability to inhibit binding of a canonical ligand substrate, with 0% activity of control corresponding to full inhibition and 100% activity of control to no inhibition. […]
(§3) quantitative measure of compound selectivity based on the number of kinase hits (enzymes inhibited) divided by the total number of distinct kinases tested. Three different activity cut-offs were analyzed – […]
(§4) ; and S(1) or % activity of control
(§5) < 1. To illustrate effect or lack of effect, an image of the entire family of kinases tested were grouped by families and S(35). The TREEspot Kinase dendrogram image was generated using TREEspot™ Software Tool and reprinted with permission from KINOME scan®, a division of DiscoveRx […]

The next series addresses CDK4 (Homo sapiens, UniProt P11802). The series is described as follows: KINOMEscan select kinase screen. Format: binding. The following applies: two experiments. As to the method:
as §1, §2, §3, §4, §5

In a further series the target is T1, wild-type PXR.1 (Homo sapiens, UniProt O75469).
T1 construct: expressed in transfected cells; host or cells: HEK293T
The series is described as follows: PXR luciferase reporter assay in HEK293T cells, wild-type PXR.1. It counts as cell-based. The following applies: 10 μM, replicate wells. As for the experimental part: After 24‐h transfection using Lipofectamine® LTX ([…] of plasmid), cells were exposed to FKK5 for 24 h. […] The data are expressed as mean ± SD RLU (relative light units from luciferase assay) normalized to β‐Gal activity in the same well. Differences were tested using 2‐way ANOVA with Tukey's multiple comparison test, and P < 0.05 was considered significant (*).
Background: Reporter assays use an easily measured gene product as a stand-in for the process of interest.

Values joined by “and” are separate entries in the source; they are usually repeats but may differ in a detail not shown here. Equal values may be shown once.

T1 sequence (O75469 whole entry): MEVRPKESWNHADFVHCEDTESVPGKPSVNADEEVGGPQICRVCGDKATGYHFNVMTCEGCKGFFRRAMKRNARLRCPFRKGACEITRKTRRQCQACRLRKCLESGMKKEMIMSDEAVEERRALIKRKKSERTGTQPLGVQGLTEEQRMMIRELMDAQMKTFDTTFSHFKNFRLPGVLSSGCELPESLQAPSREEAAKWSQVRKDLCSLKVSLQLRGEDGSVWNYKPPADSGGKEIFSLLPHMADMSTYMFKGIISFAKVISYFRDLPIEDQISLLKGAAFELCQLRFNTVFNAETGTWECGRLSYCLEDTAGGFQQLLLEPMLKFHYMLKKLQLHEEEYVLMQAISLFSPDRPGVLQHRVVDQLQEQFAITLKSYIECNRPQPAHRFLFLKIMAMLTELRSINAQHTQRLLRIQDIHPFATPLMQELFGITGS
Chain of ERK3 (Q16659 whole entry): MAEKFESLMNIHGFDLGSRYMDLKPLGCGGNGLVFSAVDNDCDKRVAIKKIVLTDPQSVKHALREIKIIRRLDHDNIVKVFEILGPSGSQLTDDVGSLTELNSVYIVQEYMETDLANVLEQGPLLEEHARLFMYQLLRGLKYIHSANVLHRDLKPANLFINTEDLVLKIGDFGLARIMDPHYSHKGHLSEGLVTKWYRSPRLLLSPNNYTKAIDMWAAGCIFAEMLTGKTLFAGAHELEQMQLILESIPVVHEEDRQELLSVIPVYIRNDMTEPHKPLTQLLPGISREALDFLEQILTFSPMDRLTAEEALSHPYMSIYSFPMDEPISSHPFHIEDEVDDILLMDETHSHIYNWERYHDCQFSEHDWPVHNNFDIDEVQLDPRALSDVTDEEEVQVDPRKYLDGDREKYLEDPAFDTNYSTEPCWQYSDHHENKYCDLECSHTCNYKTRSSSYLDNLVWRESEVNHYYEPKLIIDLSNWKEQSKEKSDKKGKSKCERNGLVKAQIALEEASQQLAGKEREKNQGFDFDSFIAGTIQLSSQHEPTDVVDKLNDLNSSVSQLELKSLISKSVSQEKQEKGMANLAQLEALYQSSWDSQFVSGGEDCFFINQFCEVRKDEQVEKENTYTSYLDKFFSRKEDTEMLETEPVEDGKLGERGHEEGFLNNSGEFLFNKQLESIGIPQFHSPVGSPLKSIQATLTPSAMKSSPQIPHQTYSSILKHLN
Chain of CDK4 (P11802 whole entry): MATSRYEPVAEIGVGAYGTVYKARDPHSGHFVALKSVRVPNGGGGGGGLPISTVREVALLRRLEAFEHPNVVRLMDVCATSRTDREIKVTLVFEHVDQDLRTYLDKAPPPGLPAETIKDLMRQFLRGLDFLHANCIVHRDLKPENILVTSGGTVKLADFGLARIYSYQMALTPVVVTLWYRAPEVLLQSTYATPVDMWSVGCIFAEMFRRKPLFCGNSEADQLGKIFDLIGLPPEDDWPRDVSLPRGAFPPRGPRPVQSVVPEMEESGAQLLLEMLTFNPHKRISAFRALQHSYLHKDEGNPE

On to `O=S(=O)(c1ccccc1)n1c(C(O)c2ccncc2)cc2ccccc21` (racemic) [FKK1], for which the “displacement of [3H]-9-cis-retinoic acid” value with RXR was “significant displacement”.

Take `O=C(c1ccncc1)c1cc2ccccc2n1S(=O)(=O)c1ccccc1` [FKK5, (1-(phenylsulfonyl)-1H-indol-2-yl)(pyridin-4-yl)methanone]: the “%Ctrl” value on ERK3 (10000 nM, 10 µM) worked out at 88 %Ctrl; on ERK3 (25000 nM, 25 µM) it was 93 %Ctrl; on CDK4 (10000 nM, 10 µM), 98 %Ctrl; at CDK4 (25000 nM, 25 µM) it was 90 %Ctrl. Moreover, the remaining binding at 10 µM on ERK3 (10000 nM, read-out: %Ctrl) came out at 100%; at CDK4 (10000 nM, read-out: %Ctrl), 100%. Also, the remaining binding at 25 µM on ERK3 (25000 nM, read-out: %Ctrl) came out at 80%; at CDK4 (25000 nM, read-out: %Ctrl), 95%.

Take `C#CCC(O)(c1ccncc1)c1cc2ccccc2n1S(=O)(=O)c1ccccc1` (stereo not shown) [FKK6]: the “PXR reporter activity, RLU/B-Gal” value on wild-type PXR.1 is 49029.5 RLU/B-Gal and 34153.4 RLU/B-Gal and 41512.1 RLU/B-Gal and 34385.8 RLU/B-Gal.
